This is an account of results in patent US9067948B2 (Nimbus Iris, Inc., priority 2012, dated 2015).

The structures appear in SMILES notation.

The assay addresses T1, IRAK-4 (Homo sapiens, UniProt Q9NWZ3).
T1 sequence (Q9NWZ3 1-460): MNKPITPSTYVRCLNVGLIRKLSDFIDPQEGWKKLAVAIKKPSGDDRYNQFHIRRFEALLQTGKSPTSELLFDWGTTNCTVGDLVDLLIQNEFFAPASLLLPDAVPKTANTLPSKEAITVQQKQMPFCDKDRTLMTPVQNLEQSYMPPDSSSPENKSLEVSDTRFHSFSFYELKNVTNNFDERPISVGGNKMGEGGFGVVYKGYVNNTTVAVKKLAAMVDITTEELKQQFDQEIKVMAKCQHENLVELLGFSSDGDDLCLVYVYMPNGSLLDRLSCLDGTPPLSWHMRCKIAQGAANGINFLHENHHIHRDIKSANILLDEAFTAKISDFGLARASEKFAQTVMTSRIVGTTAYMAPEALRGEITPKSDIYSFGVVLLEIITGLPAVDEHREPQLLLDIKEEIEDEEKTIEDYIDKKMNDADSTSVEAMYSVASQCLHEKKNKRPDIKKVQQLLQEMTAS
Put plainly: IRAK-4 activity inhibition assay (Caliper). The conditions noted are these: 3.5 nM IRAK4, 37 μM ATP, 1.5 μM Peptide 8, 28° C. 40 minutes. The class given is biochemical. The protocol: A 1× kinase base buffer was prepared from 50 mM HEPES, pH 7.5 and 0.0015% Brij-35. A stop buffer was prepared from 100 mM HEPES, pH 7.5, 0.015% Brij-35, 0.2% Coating Reagent #3, and 50 mM EDTA.
Test compound was diluted to 50× of the final desired highest inhibitor concentration in reaction by 100% DMSO. 100 ul of this compound dilution was transferred to a well in a 96-well plate.
Test compound was serially diluted by transferring 30 μl to 60 μl of 100% DMSO in the next well and so forth for a total of 10 concentrations. 100 μl of 100% DMSO was added to two empty wells for no compound control and no enzyme control in the same 96-well plate.
A new 96-well plate was marked as intermediate plate. 5 μl of compound serial dilution was transferred from source plate to the corresponding wells of the intermediate plate. 45 μl of 1× kinase base buffer (KB buffer) was added to each well of the intermediate plate. The intermediate plate was placed for 10 min on a shaker.
5 μl of each well was transferred from the 96-well intermediate plate to a 384-well plate in duplicates. For example, A1 of the 96-well plate is transferred to A1 and A2 of the 384-well plate. A2 of the 96-well plate is transferred to A3 and A4 of the 384-well plate, and so on.
IRAK4 and DTT in 1× kinase base buffer was added. The 2.5× enzyme mix contained 8.8 nM IRAK4 and 5 mM DTT.
Peptide 8, ATP, MgCl2 and MnCl2 were added in the 1× kinase base buffer. The 2.5× peptide mix contained 3.75 μM peptide 8, 92.5 μM ATP, 12.5 mM MgCl2 and 2.5 mM MnCl2.
Assay plate already contained 5 μl of compound in 10% DMSO. Added 10 μl of 2.5× enzyme solution to each well of the 384-well assay plate, except no enzyme control wells. The final concentration of IRAK4 in reaction was 3.5 nM. Added 10 μl of 1× kinase base buffer to no enzyme control wells in the assay plate. Incubated at room temperature for 10 min.
Added 10 μl of 2.5× peptide solution to each well of the 384-well assay plate. The final concentration of Peptide 8 and ATP was 1.5 μM and 37 μM, respectively. Incubated at 28° C. for 40 minutes. Added 25 μl of stop buffer to stop reaction. Collected data on Caliper.
Copied conversion % data from Caliper program. Converted conversion % values to percent inhibition values. Percent inhibition=(max−conversion %)/(max−min)*100, where “max” means the conversion % of DMSO control and “min” means the conversion % of no enzyme control.
With `CN(C)[C@H]1CC[C@H](Oc2ccnc3sc4c(c23)CCC4)CC1` [Compound I-1], the IC50 (in general, the concentration needed to halve the response being measured) was not above 5 µM.

Compound `c1cc(N[C@H]2CC[C@H](N3CCOCC3)CC2)c2c3c(sc2n1)CCC3` [Compound I-2] came in with an IC50 not above 5 µM.

As to `c1cc(O[C@H]2CC[C@H](N3CCOCC3)CC2)c2c3c(sc2n1)CCC3` [Compound I-3], the IC50 was not above 5 µM.

For the compound `CN(C)[C@H]1CC[C@H](Nc2ccnc3sc4c(c23)CCC4)CC1` [Compound I-4, 1-N,1-N-dimethyl-4-N-[7-thia-9-azatricyclo[6.4.0.0^[2,6]]dodeca-1(12),2(6),8,10-tetraen-12-yl]cyclohexane-1,4-diamine], the IC50 was not above 5 µM.

The compound `N[C@H]1CC[C@H](Nc2ccnc3sc4c(c23)CCC4)CC1` [Compound I-205] yielded an IC50 not above 5 µM.

As to `CN[C@H]1CC[C@H](Nc2ccnc3sc4c(c23)CCC4)CC1` [Compound I-206, 1-N-methyl-4-N-[7-thia-9-azatricyclo[6.4.0.0[2,6]]dodeca-1(12),2(6),8,10-tetraen-12-yl]cyclohexane-1,4-diamine], the IC50 is not above 5 µM.

As to `CN(CC(=O)N1CCCC1)[C@H]1CC[C@H](Nc2ccnc3sc4c(c23)CCC4)CC1` [Compound I-207, 2-[methyl[4-([7-thia-9-azatricyclo[6.4.0.0[2,6]]dodeca-1(8),2(6),9,11-tetraen-12yl]amino)cyclohexyl]amino]-1-(pyrrolidin-1-yl)ethan-1-one], the IC50 is not above 5 µM.

In the case of `Cn1cc(Nc2cc(N[C@H]3CC[C@H](N4CCOCC4)CC3)c3c4c(sc3n2)CCC4)cn1` [Compound I-208, N2-(1-methyl-1H-pyrazol-4-yl)-N4-((1r,4r)-4-morpholinocyclohexyl)-6,7-dihydro-5H-cyclopenta[4,5]thieno[2,3-b]pyridine-2,4-diamine], the IC50 lay in the range of 20 to 50 µM.
